In ChEMBL document CHEMBL5518246, “Discovery of Small Molecule Interleukin 17A Inhibitors with Novel Binding Mode and Stoichiometry: Optimization of DNA-Encoded Chemical Library Hits to In Vivo Active Compounds” (J Med Chem, 2024):
In brackets after ≈: the same amount, converted by molar mass.

What was measured:
[1] = Metabolic stability in human liver microsomes assessed as unbound intrinsic clearance at 0.5 uM measured after 4 hrs; format: ADME, Microsome
[2] = Thermodynamic solubility of the compound at pH 7.4 measured after 48 hrs by UHPLC analysis; format: physicochemical; settings: buffer, read-out: Therm_solubility

| CL free [1] | solubility thermodynamic at 48 h [2] | SMILES |
| --- | --- | --- |
| < 45 mL/min/kg | > 1000 µM | C[C@H](NC(=O)[C@]1(NC(=O)c2cc(Cl)c(Cl)[nH]2)CO[C@H](c2ccccc2)C1)c1ncc2c(n1)CN([C@H]1CCN(C)C1)C2 |
| 55 mL/min/kg | 7.2 µM (≈ 4.17 µg/mL) | C[C@H](NC(=O)[C@]1(NC(=O)c2cc(Cl)c(Cl)[nH]2)CO[C@H](c2ccccc2)C1)c1ncc2c(n1)CN(CC(F)F)C2 |
| 500 mL/min/kg |  | C[C@H](NC(=O)[C@H](CCc1ccccc1)NC(=O)c1cc(Cl)c(Cl)[nH]1)c1nc2cnccc2s1 |
| 233 mL/min/kg |  | O=C(N[C@@H](CCc1ccccc1)C(=O)NCc1cn2cccnc2n1)c1cc(Cl)c(Cl)[nH]1 |
| 6000 mL/min/kg |  | CN1C(=O)[C@@H](NC(=O)[C@@H](NC(=O)c2cc(Cl)c(Cl)[nH]2)C2CCCCC2)COc2ccccc21 |
| 200 mL/min/kg |  | C[C@H](NC(=O)[C@H](CCc1ccccc1)NC(=O)c1cc(Cl)c(Cl)[nH]1)c1cn2cccnc2n1 |
| 200 mL/min/kg | 5.3 µM (≈ 3.17 µg/mL) | C[C@H](NC(=O)[C@]1(NC(=O)c2cc(Cl)c(Cl)[nH]2)CO[C@H](c2ccccc2)C1)c1ncc2c(n1)CN(CC(F)(F)F)C2 |
| 63.3 mL/min/kg |  | O=C(N[C@@]1(C(=O)NCc2cn3cccnc3n2)CO[C@H](c2ccccc2)C1)c1cc(Cl)c(Cl)[nH]1 |
| 70 mL/min/kg |  | CC(=O)N1CCO[C@@H](CNC(=O)[C@H](CCc2ccccc2)NC(=O)c2cc(Cl)c(Cl)[nH]2)C1 |
| 102 mL/min/kg | 31 µM (≈ 16 µg/mL) | C[C@H](NC(=O)[C@]1(NC(=O)c2cc(Cl)c(Cl)[nH]2)CO[C@H](c2ccccc2)C1)c1cc2c(nn1)COC2 |
| 78.3 mL/min/kg | 0.82 µM (≈ 0.425 µg/mL) | COCc1cnc([C@H](C)NC(=O)[C@]2(NC(=O)c3cc(Cl)c(Cl)[nH]3)CO[C@H](c3ccccc3)C2)nc1 |
| 200 mL/min/kg | 1.7 µM (≈ 0.759 µg/mL) | C[C@H](NC(=O)[C@H](CCc1ccccc1)NC(=O)c1cc(Cl)c(Cl)[nH]1)c1ncccn1 |
| 115 mL/min/kg |  | O=C(N[C@@]1(C(=O)NCc2cn3cccnc3n2)CO[C@@H](c2ccccc2)C1)c1cc(Cl)c(Cl)[nH]1 |
| 183 mL/min/kg |  | C[C@H](NC(=O)[C@]1(NC(=O)c2cc(Cl)c(Cl)[nH]2)CO[C@H](c2ccccc2)C1)c1ncc2c(n1)CN(CCC(F)(F)F)C2 |
| 35000 mL/min/kg |  | O=C(CN1C(=O)[C@@H](NC(=O)[C@@H](NC(=O)c2cc(Cl)c(Cl)[nH]2)C2CCCCC2)CSc2ccccc21)Nc1ccccc1 |
| 217 mL/min/kg | 719 µM (≈ 371 µg/mL) | C[C@H](NC(=O)[C@]1(NC(=O)c2cc(Cl)c(Cl)[nH]2)CO[C@H](c2ccccc2)C1)c1ncc2c(n1)CNC2 |
| 88.3 mL/min/kg | 190 µM (≈ 101 µg/mL) | C[C@H](NC(=O)[C@]1(NC(=O)c2cc(Cl)c(Cl)[nH]2)CO[C@H](c2ccccc2)C1)c1ncc2c(n1)CN(C)C2 |
| < 35 mL/min/kg |  | O=C(N[C@]1(C(=O)NCc2cn3cccnc3n2)CO[C@@H](c2ccccc2)C1)c1cc(Cl)c(Cl)[nH]1 |
| 160 mL/min/kg |  | O=C(N[C@@H](CCc1ccccc1)C(=O)NCCC1(O)CCOCC1)c1cc(Cl)c(Cl)[nH]1 |
| 35 mL/min/kg |  | CNC(=O)[C@H](CCc1ccccc1)NC(=O)c1cc(C)c[nH]1 |
| 107 mL/min/kg |  | COC[C@H](NC(=O)[C@H](CCc1ccccc1)NC(=O)c1cc(Cl)c(Cl)[nH]1)c1cn2cccnc2n1 |
| 85 mL/min/kg |  | CNC(=O)[C@@H]1C[C@@H](c2ccccc2)CN1C(=O)c1cc(Cl)c(Cl)[nH]1 |

| CL free [1] | solubility thermodynamic at 48 h [2] | SMILES |
| --- | --- | --- |
| < 28.3 mL/min/kg | 280 µM (≈ 160 µg/mL) | C[C@H](NC(=O)[C@]1(NC(=O)c2cc(Cl)c(Cl)[nH]2)CO[C@H](c2ccccc2)C1)c1ncc2c(n1)CN(C1COC1)C2 |
| 135 mL/min/kg |  | O=C(N[C@@H](CCc1ccccc1)C(=O)NCC1(CO)CCOCC1)c1cc(Cl)c(Cl)[nH]1 |
| 400 mL/min/kg | > 1000 µM | C[C@H](NC(=O)[C@]1(NC(=O)c2cc(Cl)c(Cl)[nH]2)CO[C@H](c2ccccc2)C1)c1ncc2c(n1)CN([C@@H]1CCN(C)C1)C2 |
| 333 mL/min/kg |  | C[C@H](NC(=O)[C@H](CCc1ccccc1)NC(=O)c1cc(Cl)c(Cl)[nH]1)c1cn2ccoc2n1 |
| 217 mL/min/kg |  | O=C(N[C@H](C(=O)NCc1cn2cccnc2n1)[C@@H]1C[C@H]1c1ccccc1)c1cc(Cl)c(Cl)[nH]1 |
| 98.3 mL/min/kg |  | O=C(N[C@@H](CCc1ccccc1)C(=O)NC[C@H]1COCCO1)c1cc(Cl)c(Cl)[nH]1 |
| < 40 mL/min/kg |  | CNC(=O)[C@H](CCc1ccccc1)NC(=O)c1cc(Cl)c(Cl)[nH]1 |
| 60 mL/min/kg |  | O=C(N[C@@H](CCc1ccccc1)C(=O)NC[C@@H]1COCCO1)c1cc(Cl)c(Cl)[nH]1 |
| < 38.3 mL/min/kg | 654 µM (≈ 417 µg/mL) | C[C@H](NC(=O)[C@]1(NC(=O)c2cc(Cl)c(Cl)[nH]2)CO[C@H](c2cccc(C#N)c2)C1)c1ncc2c(n1)CN(C1CCN(C)CC1)C2 |
| 217 mL/min/kg |  | CN1CCN(CCNC(=O)[C@H](CCc2ccccc2)NC(=O)c2cc(Cl)c(Cl)[nH]2)CC1 |
| 533 mL/min/kg |  | O=C(N[C@H](C(=O)NCc1cn2cccnc2n1)[C@H]1C[C@@H]1c1ccccc1)c1cc(Cl)c(Cl)[nH]1 |
| 58.3 mL/min/kg |  | O=C(N[C@@H](CCc1ccccc1)C(=O)NC1(c2cn3cccnc3n2)CC1)c1cc(Cl)c(Cl)[nH]1 |
| 113 mL/min/kg |  | O=C(N[C@@H](CCc1ccccc1)C(=O)NCC1(O)CCOCC1)c1cc(Cl)c(Cl)[nH]1 |
| 125 mL/min/kg |  | CC[C@H](NC(=O)[C@H](CCc1ccccc1)NC(=O)c1cc(Cl)c(Cl)[nH]1)c1cn2cccnc2n1 |
| 145 mL/min/kg |  | CNC(=O)[C@@H](NC(=O)c1cc(Cl)c(Cl)[nH]1)C1Cc2ccccc2C1 |
| 183 mL/min/kg | 60 µM (≈ 31 µg/mL) | C[C@H](NC(=O)[C@]1(NC(=O)c2cc(Cl)c(Cl)[nH]2)CO[C@H](c2ccccc2)C1)c1cnc2c(n1)COC2 |
| 71.7 mL/min/kg | 73 µM (≈ 33.8 µg/mL) | O=C(N[C@@H](CCc1ccccc1)C(=O)NCc1ncc(CO)cn1)c1cc(Cl)c(Cl)[nH]1 |
| 938 mL/min/kg |  | O=C(N[C@@H](CCc1ccccc1)C(=O)N[C@@H](CO)c1cn2cccnc2n1)c1cc(Cl)c(Cl)[nH]1 |
| 56.7 mL/min/kg |  | CC(=O)N1CCO[C@H](CNC(=O)[C@H](CCc2ccccc2)NC(=O)c2cc(Cl)c(Cl)[nH]2)C1 |
| < 35 mL/min/kg | 660 µM (≈ 433 µg/mL) | COCc1cccc([C@@H]2C[C@](NC(=O)c3cc(Cl)c(Cl)[nH]3)(C(=O)N[C@@H](C)c3ncc4c(n3)CN(C3CCN(C)CC3)C4)CO2)c1 |
| 120 mL/min/kg | 61 µM (≈ 33.8 µg/mL) | C[C@H](NC(=O)[C@]1(NC(=O)c2cc(Cl)c(Cl)[nH]2)CO[C@H](c2ccccc2)C1)c1ncc2c(n1)CN(CC#N)C2 |
| 667 mL/min/kg |  | O=C(N[C@H](C(=O)NCc1cn2cccnc2n1)[C@H]1CCc2ccccc2C1)c1cc(Cl)c(Cl)[nH]1 |

| CL free [1] | solubility thermodynamic at 48 h [2] | SMILES |
| --- | --- | --- |
| 90 mL/min/kg |  | CNC(=O)[C@@H](NC(=O)c1cc(Cl)c(Cl)[nH]1)C1CCCCC1 |
| < 26.7 mL/min/kg | 600 µM (≈ 351 µg/mL) | C[C@H](NC(=O)[C@]1(NC(=O)c2cc(Cl)c(Cl)[nH]2)CO[C@H](c2ccccc2)C1)c1ncc2c(n1)CN(C1CN(C)C1)C2 |
| < 28.3 mL/min/kg | 67 µM (≈ 33.8 µg/mL) | C[C@H](NC(=O)[C@]1(NC(=O)c2cc(Cl)c(Cl)[nH]2)CO[C@H](c2ccccc2)C1)c1ncc(CO)cn1 |
| 120 mL/min/kg |  | O=C(N[C@H](C(=O)NCc1cn2cccnc2n1)C1Cc2ccccc2C1)c1cc(Cl)c(Cl)[nH]1 |
| 350 mL/min/kg |  | CC(C)(NC(=O)[C@H](CCc1ccccc1)NC(=O)c1cc(Cl)c(Cl)[nH]1)c1cn2cccnc2n1 |
| 167 mL/min/kg | 5.7 µM (≈ 2.72 µg/mL) | COCc1cnc(CNC(=O)[C@H](CCc2ccccc2)NC(=O)c2cc(Cl)c(Cl)[nH]2)nc1 |
| 333 mL/min/kg | 3.8 µM (≈ 1.95 µg/mL) | C[C@H](NC(=O)[C@]1(NC(=O)c2cc(Cl)c(Cl)[nH]2)CO[C@H](c2ccccc2)C1)c1ncc2c(n1)CCC2 |
| 1300 mL/min/kg | 230 µM (≈ 99.2 µg/mL) | O=C(N[C@@H](CCc1ccccc1)C(=O)NCc1cccnc1)c1cc(Cl)c(Cl)[nH]1 |
| 1680 mL/min/kg |  | C[C@H](NC(=O)[C@H](CCc1ccccc1)NC(=O)c1cc(Cl)c(Cl)[nH]1)c1cn2ccsc2n1 |
| 43.3 mL/min/kg |  | O=C(N[C@]1(C(=O)NCc2cn3cccnc3n2)CO[C@H](c2ccccc2)C1)c1cc(Cl)c(Cl)[nH]1 |
| 46.7 mL/min/kg | 25 µM (≈ 10.8 µg/mL) | O=C(N[C@@H](CCc1ccccc1)C(=O)NCc1ncccn1)c1cc(Cl)c(Cl)[nH]1 |
| < 33 mL/min/kg |  | CNC(=O)[C@H](CC(C)(C)C)NC(=O)c1cc(Cl)c(Cl)[nH]1 |
| 200 mL/min/kg |  | C[C@H](NC(=O)[C@H](CCc1ccccc1)NC(=O)c1cc(Cl)c(Cl)[nH]1)c1cn2nccnc2n1 |
| 1530 mL/min/kg | 145 µM (≈ 62.4 µg/mL) | O=C(N[C@@H](CCc1ccccc1)C(=O)NCc1ccccc1)c1cc(Cl)c(Cl)[nH]1 |
| 115 mL/min/kg |  | O=C(NC1(C(=O)NCc2cn3cccnc3n2)Cc2ccccc2C1)c1cc(Cl)c(Cl)[nH]1 |
| 1050 mL/min/kg |  | O=C(N[C@H](C(=O)NCc1cn2cccnc2n1)[C@@H]1CCc2ccccc2C1)c1cc(Cl)c(Cl)[nH]1 |
| 267 mL/min/kg |  | C[C@@H](NC(=O)[C@H](CCc1ccccc1)NC(=O)c1cc(Cl)c(Cl)[nH]1)c1cn2cccnc2n1 |
| < 41.7 mL/min/kg | 532 µM (≈ 342 µg/mL) | COc1cccc([C@@H]2C[C@](NC(=O)c3cc(Cl)c(Cl)[nH]3)(C(=O)N[C@@H](C)c3ncc4c(n3)CN(C3CCN(C)CC3)C4)CO2)c1 |
| 217 mL/min/kg |  | O=C(NC(CCc1ccccc1)C(=O)NCc1cn2cccnc2n1)c1cc(Cl)c(Cl)[nH]1 (racemic) |
| 1030 mL/min/kg |  | O=C(NC(CCc1ccccc1)C(=O)NCc1cnc(N2CCOCC2)nc1)c1cc(Cl)c(Cl)[nH]1 (racemic) |
| 817 mL/min/kg |  | O=C(NC(CCc1ccccc1)C(=O)NCc1cccnc1N1CCOCC1)c1cc(Cl)c(Cl)[nH]1 (racemic) |
| 1120 mL/min/kg |  | O=C(NC(CCc1ccccc1)C(=O)NCc1cn2ccsc2n1)c1cc(Cl)c(Cl)[nH]1 (racemic) |
